Here are results for seven compounds from ChEMBL document CHEMBL1123484 (J Med Chem, 1986).

Where only a bound is given, the exact number is not on record here.

Assay [1] deals with T1, Folylpolyglutamate synthase, mitochondrial (Mus musculus, UniProt P48760).
T1 sequence (P48760 whole entry): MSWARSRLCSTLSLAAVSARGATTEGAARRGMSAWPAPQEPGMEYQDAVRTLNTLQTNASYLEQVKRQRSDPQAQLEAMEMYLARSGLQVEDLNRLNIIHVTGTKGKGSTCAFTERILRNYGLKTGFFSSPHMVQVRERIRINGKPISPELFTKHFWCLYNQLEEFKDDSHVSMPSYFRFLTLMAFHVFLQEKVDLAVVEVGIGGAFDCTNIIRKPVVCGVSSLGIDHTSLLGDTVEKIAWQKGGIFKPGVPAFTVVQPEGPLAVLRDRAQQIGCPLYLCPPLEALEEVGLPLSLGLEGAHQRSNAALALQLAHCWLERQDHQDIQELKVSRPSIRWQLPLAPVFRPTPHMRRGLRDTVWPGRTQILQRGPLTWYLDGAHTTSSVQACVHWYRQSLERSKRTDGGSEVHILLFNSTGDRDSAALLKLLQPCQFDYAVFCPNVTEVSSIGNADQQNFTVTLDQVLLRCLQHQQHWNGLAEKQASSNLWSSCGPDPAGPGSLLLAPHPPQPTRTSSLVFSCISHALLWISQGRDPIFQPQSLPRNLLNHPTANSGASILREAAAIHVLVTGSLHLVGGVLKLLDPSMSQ
Nature of the assay: Compound was tested for its ability to inhibit Folyl-polyglutamate synthase from mouse liver.

A further assay deals with L1210 ( R81). The assay is described as follows: Compound was tested for its ability to inhibit growth of L1210/R81 cells. It counts as functional, cell-based. Particulars: Mus musculus.
The test system of the next assay is L1210. Nature of the assay: Compound was tested for its ability to inhibit growth of L1210 mouse leukemia cells. It counts as functional, cell-based.
For a further assay, the target named is T2, Dihydrofolate reductase (Mus musculus, UniProt P00375).
T2 sequence (P00375 whole entry): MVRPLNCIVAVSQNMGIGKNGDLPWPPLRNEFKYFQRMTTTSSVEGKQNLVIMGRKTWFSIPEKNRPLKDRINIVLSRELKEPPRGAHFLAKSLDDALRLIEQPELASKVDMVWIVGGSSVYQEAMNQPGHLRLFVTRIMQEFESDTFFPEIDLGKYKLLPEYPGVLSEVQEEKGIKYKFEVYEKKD
The assay is described as follows: biochemical.

The target in assay [2] is T3, Folylpolyglutamate synthase, mitochondrial (Mus musculus) (UniProt P48760).
T3 sequence (whole entry): T1 sequence (P48760 whole entry)
Nature of the assay: Compound (500 uM folate.

Description for Dihydrofolate reductase: Compound was tested for its ability to inhibit purified dihydrofolate reductase(DHFR) from L1210/R81 cells

By Ki is commonly meant the dissociation constant of the complex between target and ligand, obtained from inhibition or displacement. A lower Ki goes with tighter binding. In general, IC50 refers to the concentration needed to halve the response being measured. Regarding `CN(Cc1cnc2nc(N)nc(N)c2n1)c1ccc(C(=O)NC(CCCN)C(=O)O)cc1` (stereo unspecified), in assay [1], the Ki worked out at 20.4 µM. Moreover, the values for the IC50 in the assay on L1210 ( R81), in the assay with L1210 and on Dihydrofolate reductase were 86 µM, 1.3 µM and 0.16 µM, respectively.
In general, inhibition refers to the drop in the measured response relative to a control, in per cent. Higher therefore signals strong suppression. On to `CN(Cc1cnc2nc(N)nc(N)c2n1)c1ccc(C(=O)NC(CN)C(=O)O)cc1` (stereo unspecified), for which the inhibition in assay [2] was less than 10%. Also, the values for the IC50 in the assay on L1210 ( R81), in the assay with L1210 and on Dihydrofolate reductase were 405 µM, 0.44 µM and 0.18 µM, respectively.
Compound `Nc1nc(N)c2nc(CNc3ccc(C(=O)N[C@@H](CCC(=O)O)C(=O)O)cc3)cnc2n1` [AMINOPTERIN] gave an IC50 in the assay on L1210 ( R81) of 84 µM.
The same measure, in the same setting: the value for `CN(Cc1cnc2nc(N)nc(N)c2n1)c1ccc(C(=O)N[C@@H](CCC(=O)O)C(=O)O)cc1` [METHOTREXATE] was 220 µM.
`CN(Cc1cnc2nc(N)nc(N)c2n1)c1ccc(C(=O)NC(CCN)C(=O)O)cc1` (stereo unspecified) gave an inhibition in assay [2] of less than 10%. Also, the IC50 in the assay on L1210 ( R81) was 290 µM; in the assay with L1210 it was 2.42 µM; on Dihydrofolate reductase, 0.12 µM.
`NCCCC(NC(=O)c1ccc(NCc2cnc3nc(N)nc(N)c3n2)cc1)C(=O)O` (stereo unspecified): in assay [1], the Ki was 0.15 µM. In addition, the IC50 was 32 µM in the assay with L1210 ( R81) and 1.3 µM in the assay with L1210.
As for `CN(Cc1cnc2nc(N)nc(N)c2n1)c1ccc(C(=O)NC(CCCCN)C(=O)O)cc1` (stereo unspecified), the inhibition in assay [2] was less than 10%. Further, the IC50 in the assay on L1210 ( R81) came out at 220 µM; in the assay on L1210, 0.4 µM; at Dihydrofolate reductase, 0.065 µM.
